Laboratory results as given in patent publication US9623262B2, “Methods and systems for determining the distribution of radiation dose and response” (priority 2013, dated 2017).

Tests used:
V79 cells [1] = test: Clonogenic survival after combined treatment with 210Po-citrate and drug (cocktails); type: cell-based, Chinese hamster; settings: for dose dependence of the enhancement of α-particle radiotoxicity: 0.63 μM daunomycin or 2.50 μM doxorubicin with graded 210Po-citrate; for effect of drug on radiotoxicity of 210Po-citrate: concomitant treatment, survival corrected for drug toxicity
Source text: To evaluate cytotoxicity of combined treatment of V79 cells with ^210Po-citrate and daunomycin, or ^210Po-citrate and doxorubicin, the surviving fraction of clonogens was plotted as a function of mean cellular uptake of ^210Po (FIG. 9) and as a function of mean absorbed dose to the cell nucleus. When cells were only treated with ^210Po-citrate, the survival curve can be described by a 1-component exponential function. When cells were concomitantly treated with a single drug concentration and varying amounts of ^210Po-citrate, the dose-response curves followed a 2-component exponential function. The data corresponding to the combined treatments were then corrected for drug toxicity, by dividing the surviving fraction for each datum point by the surviving fraction for drug alone (SF=0.10), and replotted in FIG. 9. Both of the corrected cell survival curves emerged below those obtained for ^210Po-citrate alone.

V79 cells [2] = test: Clonogenic survival assay after single-agent treatment
Protocol: The surviving fraction SF of cells exposed to the agent was assessed with a clonogenic survival assay and plotted as a function of several different variables including extracellular concentration, <I>net, absorbed dose (Gy), and mean cellular activity (mBq/cell). […] Analogous to the cellular activity and absorbed dose required to achieve 37% survival, a37 and D37, the net mean lethal fluorescence intensity of the drug required to achieve 37% survival, <I>net,37, can be defined similarly and obtained from plots of SF versus <I>net.
A is the intracellular activity of ^210Po-citrate, absorbed dose to the cell nucleus, or drug concentration. Least squares fits of the survival data to this function were performed. The variable b is a fitted parameter.
Cells grown in 225-cm^2 flasks were trypsinized (0.25% trypsin, Gibco, catalog no. 25200-056), and MEMB was added to obtain 2×10^6 cells/mL. Aliquots of 1 mL were placed in Falcon 17×100 mm polypropylene tubes (BD, catalog no. 352018) and placed on a rocker-roller (Thermo Fisher, Fair Lawn, N.J.) for 3 hours at 37° C. with 5% CO2 and 95% air. After this conditioning period, cells were treated with drug or radiochemical. Cell cultures were exposed to radiochemical and drugs for 0.5 and 2.5 h, respectively.
One milliliter of MEMB containing ^210Po-citrate was added to the 1 mL of conditioned V79 cultures (2×10^6 cells/mL), to arrive at a concentration of 0-250 kBq/mL (pH 6.9-7.0). After incubating for 30 min, the cells were washed 2× with MEMB, resuspended in 2 mL of MEMB, and incubated on a rocker-roller for 2.5 h to simulate concomitant drug exposure. The cells were resuspended in a 5 mL of MEMB, passed 5× through a needle, and counted with a Beckman Coulter Model Z2 (Brea, Calif.). Aliquots (500 μL) of the cell suspension were transferred to vials, mixed with 5 mL Ecolume (MP Biomedical, Solon, Ohio, catalog no. 882470), and counted with a Beckman Coulter LS6500, and the mean activity per cell was determined (efficiency, 50% as per prior studies). Aliquots of about 5×10^5 cells were counted in triplicate for ^210Po activity and the cpm ranged from 10^3-10^5. The triplicate measurements kept statistical variations to a minimum. Each sample was serially diluted and plated in Falcon 60×15 mm tissue culture dishes for colony formation. Cultures were incubated for 7 days, and the colonies were fixed in 95% ethanol, stained with 0.01% Amido Black, washed in tap-water, air-dried, and counted.
After conditioning, the cell cultures were treated with daunomycin (Sigma, catalog no. D8809) or doxorubicin (Sigma, catalog no. 44583) to a final concentration of 0-10 μmol/L in MEMB. The tubes were returned to the rocker-roller for 2.5 h. The cells were then processed for colony formation as described above.

COc1cccc2c1C(=O)c1c(O)c3c(c(O)c1C2=O)C[C@@](O)(C(C)=O)C[C@@H]3O[C@H]1C[C@H](N)[C@H](O)[C@H](C)O1 [daunomycin]
dose dependence of the enhancement of α-particle radiotoxicity (V79 cells [1]): independent of radiation absorbed dose beyond about 0.5 Gy
effect of drug on radiotoxicity of 210Po-citrate (V79 cells [1]): enhance the radiotoxicity of α-particles
relative cytotoxicity based on extracellular drug concentration (V79 cells [2]; V79 cell cultures): more cytotoxic than doxorubicin
lethality of daunomycin relative to doxorubicin (V79 cells [2]; low extracellular concentrations, V79 cells): ~5 ×

COc1cccc2c1C(=O)c1c(O)c3c(c(O)c1C2=O)C[C@@](O)(C(=O)CO)C[C@@H]3O[C@H]1C[C@H](N)[C@H](O)[C@H](C)O1 [doxorubicin]
dose dependence of the enhancement of α-particle radiotoxicity (V79 cells [1]): dose-dependent increase
effect of drug on radiotoxicity of 210Po-citrate (V79 cells [1]): enhance the radiotoxicity of α-particles

^210Po-citrate
cellular uptake of 210Po at the mean lethal dose (V79 cells [2]; 37% survival): 0.21 mBq/cell
atoms of 210Po per cell at the mean lethal dose (V79 cells [2]; corresponds to 0.21 mBq/cell): about 3600 atoms
